According to patent US10800824B2, “AIMP1 protein fragment and skin-protecting composition containing same as active ingredient” (NEOMICS CO., LTD., priority 2016, dated 2020):
No end group written: not given here.

What was measured:
Raw 264.7 cells = assay: TNF-alpha ELISA assay (TNF-alpha secretion); type: cell-based; conditions: 10 μM, 6 hours, FIG. 4
Procedure: Raw 264.7 cells (ATCC TIB-71; 3,000 cells/well) were cultured for 12 hours in DMEM medium containing 10% serum in a 96-well plate, and then cultured in serum-free medium for about 3 hours. Then, Neo-Pep polypeptide (SEQ ID NO: 1) and its fragments (SEQ ID NOS: 2 to 4) were added to the DMEM medium with the concentration of 10 μM each, and then cultured for 6 hours.
Then, the medium was collected and centrifuged at 1,000 g for 10 minutes, and secreted TNF-α was detected using a TNF-α ELISA assay (BD Biosciences, USA) according to the manufacturer's instructions.

[1] = system: normal epithelium cells (vero); assay: Cytotoxicity assay (Cell Counting Kit-8 assay) on normal epithelium cells; type: cell-based; conditions: 10 μM, 24 hours, CCK-8, FIG. 3
Procedure: To confirm the proliferation and cytotoxicity of the fibroblasts, the CCK-8 assay (Cell Counting Kit-8 assay) of Dojindo Molecular Technologies (Japan) was performed according to the manufacturer's instructions.
First, human foreskin fibroblast (3,000 cells/well; Promocell) and normal epithelium cells (vero; 3,000 cells/well) were cultured in DMEM medium containing 10% serum in 96-well plates for 12 hours, and then cultured in serum-free medium for about 3 hours. Then, Neo-Pep polypeptide (SEQ ID NO: 1) and fragments thereof (SEQ ID NOS: 2 to 4) were added to the DMEM medium with the concentration of 10 μM each, and then cultured for 24 hours.
Then, 10 μl of CCK-8 solution (Dojindo Molecular Technologies, Japan) was added to each well of the medium, and the absorbance was analyzed at 450 nm using a microplate reader according to the manufacturer's instructions.

Row | Sequence | secreted TNF-alpha level versus control group (Raw 264.7 cells) | epithelium cell viability versus control group [1]
1 | AVLKRLEQKGAEADQIIEYLKQQVSLLKEKAILQATLREEK [Neo-Pep] | very low and similar to that of control group | 
2 | IEYLKQQVSLLKEKA [Polypeptide S1400, IEYLKQQVSLLKEKA] | very low and similar to that of control group | slightly lower
3 | KGAEADQIIEYLKQQ [Polypeptide S1300, KGAEADQIIEYLKQQ] | very low and similar to that of control group | 
4 | RLEQKGAEADQIIEY [Polypeptide S1200, RLEQKGAEADQIIEY] | very low and similar to that of control group | 
